Measured values: patent US12448352B2, “Beta adrenergic agonist and methods of using the same” (Curasen Therapeutics, Inc., priority 2019, dated 2025)

Tests used:
MDCK-MDR1 cells = experiment: MDCK-MDR1 permeability assay; assay type: in vitro ADME; parameters: A-B (Papp apical to basolateral) / B-A (Papp basolateral to apical): unit not given here
Description: Preparation of MDCK-MDR1 Cells. Cell culture medium of was added to each well of the Transwell insert (50 μL) and reservoir (25 mL). The HTS transwell plates were then incubated at 37° C., 5% CO2 for 1 hour before cell seeding. MDCK-MDR1 cells were diluted to 1.56×10^6 cells/mL with culture medium and 50 μL of cell suspension were dispensed into the filter well of the 96-well HTS Transwell plate. Cells were cultivated for 4-8 days in a cell culture incubator at 37° C., 5% CO2, 95% relative humidity. Cell culture medium was replaced every other day, beginning no later than 24 hours after initial plating.
Preparation of Stock Solutions. 10 mM stock solutions of test compounds were prepared in DMSO. The stock solutions of positive controls were prepared in DMSO at the concentration of 10 mM. Metoprolol, prazosin and imatinib were used as control compounds in this assay.
Assessment of Cell Monolayer Integrity. Medium was removed from the reservoir and each Transwell insert and replaced with prewarmed fresh culture medium. Transepithelial electrical resistance (TEER) across the monolayer was measured using Millicell Epithelial Volt-Ohm measuring system (Millipore, USA). The Plate was returned to the incubator once the measurement was done. TEER value should be greater than 42 ohm·cm2, which indicates the well-qualified MDCK-MDR1 monolayer. The TEER value was calculated according to the following equation: TEER measurement (ohms)×Area of membrane (cm^2)=TEER value (ohm·cm^2)
Assay Procedures. The MDCK-MDR1 plate was removed from the incubator and washed twice with pre-warmed HBSS (10 mM HEPES, pH 7.4), and then incubated at 37° C. for 30 minutes. The stock solutions of test compounds and controls were diluted in DMSO to get 1 mM solutions and then diluted with HBSS (10 mM HEPES, pH 7.4) to get 5 μM working solutions. The final concentration of DMSO in the incubation system was 0.5%. […]

[1] = Mouse pharmacokinetic study (plasma); assay type: in vivo, male C57BL/6J mice; conditions: PO 5 mg/kg
Description: (§1) The rat pharmacokinetics studies of exemplary compounds 03-3, 03-5, and 03-115 were conducted with male SD rats. These rats were typically about 6-8 weeks old, weighing 200 g to 300 g. Animals were fasted overnight and free access to food 4 hours after dosing. A required volume of vehicle was added to reach the target concentration of the test article and vehicle component to prepare for the dosing. The dosing vehicle was PEG400 or 30% PEG400 in saline for IV, or 0.5% methylcellulose in water for PO. For IV dosing, the animals were administered intravenously via tail vein. For PO dosing, the animals were administered via oral gavage. After dosing, blood sample was collected (˜0.2 mL per time point) through jugular vein or heart puncture. Blood of each sample was transferred into plastic micro centrifuge tubes containing EDTA-K2. Collection tubes with blood samples and anticoagulant were inverted several times for proper mixing of the tube contents and then placed on wet ice. The blood samples were centrifuged at 2000 g for 5 minutes at 4° C. to obtain plasma which was stored in a freezer at −75±15° C. prior to analysis. Samples were analyzed using LC-MS/MS. WinNonlin were used for pharmacokinetic calculations.
Mouse pharmacokinetics studies of exemplar compounds 03-3 and 03-5 were conducted substantially similarly to the rat pharmacokinetic studies, instead using male C57BL/6J mice. These mice were typically about 6-8 weeks old, weighing 20 g to 30 g. Animals were free access to food before dosing. Sample amount was ˜0.03 mL per time point and sample site was dorsal metatarsal or heart puncture.

[2] = Rat pharmacokinetic study (plasma); assay type: in vivo, male SD rats
Description: as §1

**Q.** For Cc1ncccc1[C@@H](O)CNC(C)(C)C [Compound 03-115], which “A-B (Papp apical to basolateral)” value (MDCK-MDR1 cells; MDCK-MDR1, 5 μM, 2 hours) is on record?
**A.** 6.96

**Q.** What about the “B-A (Papp basolateral to apical)” value (MDCK-MDR1 cells; MDCK-MDR1, 5 μM, 2 hours) of the same compound?
**A.** 10.98

**Q.** And the “Efflux Ratio” value (MDCK-MDR1 cells; MDCK-MDR1, Papp (B-A)/Papp (A-B))?
**A.** 1.58

**Q.** What about the AUCInf [1] of the same compound?
**A.** 3018 ng·h/mL

**Q.** And the Cmax [1]?
**A.** 1751 ng/mL

**Q.** What about the MRTInf_obs [1] of the same compound?
**A.** 108 min

**Q.** And the Tmax [1]?
**A.** 30 min

**Q.** And the AUCInf ([2]; IV 1 mg/kg)?
**A.** 164 ng·h/mL

**Q.** And the C0 ([2]; IV 1 mg/kg)?
**A.** 512 ng/mL

**Q.** What about the T1/2 ([2]; IV 1 mg/kg) of the same compound?
**A.** 21.6 min

**Q.** And the Vss_obs ([2]; IV 1 mg/kg)?
**A.** 2.4 L/kg

**Q.** And the AUCInf ([2]; PO 5 mg/kg)?
**A.** 192 ng·h/mL

**Q.** And the Cmax ([2]; PO 5 mg/kg)?
**A.** 174 ng/mL

**Q.** What about the MRTInf_obs ([2]; PO 5 mg/kg) of the same compound?
**A.** 63.6 min

**Q.** What about the T1/2 ([2]; PO 5 mg/kg) of the same compound?
**A.** 96.6 min

**Q.** And the Tmax ([2]; PO 5 mg/kg)?
**A.** 15 min
